Reference: paper PMC6437697 (Journal of Medicinal Chemistry, 2019)

Key:
Assay in all cases: KINOMEscan
Type in all cases: binding
Conditions in all cases: read-out: % control activity remaining
BRK = target: T1, BRK (Homo sapiens, UniProt Q13882)
T1 construct: purchased Eurofins DiscoverX KINOMEscan

BRSK2 = target: T2, BRSK2 (Homo sapiens, UniProt Q8IWQ3)
T2 construct: purchased Eurofins DiscoverX KINOMEscan
T2 sequence (Q8IWQ3 1-736): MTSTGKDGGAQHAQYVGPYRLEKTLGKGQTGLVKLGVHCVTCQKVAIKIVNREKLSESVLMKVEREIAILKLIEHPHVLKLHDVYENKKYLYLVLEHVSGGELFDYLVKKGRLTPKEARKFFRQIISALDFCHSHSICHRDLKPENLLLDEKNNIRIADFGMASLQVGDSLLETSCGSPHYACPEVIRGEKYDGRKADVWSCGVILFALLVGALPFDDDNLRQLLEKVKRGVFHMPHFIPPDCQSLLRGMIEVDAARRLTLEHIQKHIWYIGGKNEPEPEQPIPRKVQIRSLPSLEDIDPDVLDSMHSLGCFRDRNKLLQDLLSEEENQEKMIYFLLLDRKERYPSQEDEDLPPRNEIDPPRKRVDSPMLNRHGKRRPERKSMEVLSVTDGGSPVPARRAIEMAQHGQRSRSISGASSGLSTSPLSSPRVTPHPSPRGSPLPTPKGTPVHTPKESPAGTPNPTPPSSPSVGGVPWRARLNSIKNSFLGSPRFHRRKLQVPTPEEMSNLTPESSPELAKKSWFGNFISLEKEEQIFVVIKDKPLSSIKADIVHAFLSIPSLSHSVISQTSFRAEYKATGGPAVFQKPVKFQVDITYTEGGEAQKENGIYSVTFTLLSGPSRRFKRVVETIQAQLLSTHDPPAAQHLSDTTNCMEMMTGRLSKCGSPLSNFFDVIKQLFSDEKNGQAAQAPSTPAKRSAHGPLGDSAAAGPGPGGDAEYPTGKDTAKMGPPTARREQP

DRAK1 = target: T3, DRAK1 (Homo sapiens, UniProt Q9UEE5)
T3 construct: purchased Eurofins DiscoverX KINOMEscan
T3 sequence (Q9UEE5 1-414): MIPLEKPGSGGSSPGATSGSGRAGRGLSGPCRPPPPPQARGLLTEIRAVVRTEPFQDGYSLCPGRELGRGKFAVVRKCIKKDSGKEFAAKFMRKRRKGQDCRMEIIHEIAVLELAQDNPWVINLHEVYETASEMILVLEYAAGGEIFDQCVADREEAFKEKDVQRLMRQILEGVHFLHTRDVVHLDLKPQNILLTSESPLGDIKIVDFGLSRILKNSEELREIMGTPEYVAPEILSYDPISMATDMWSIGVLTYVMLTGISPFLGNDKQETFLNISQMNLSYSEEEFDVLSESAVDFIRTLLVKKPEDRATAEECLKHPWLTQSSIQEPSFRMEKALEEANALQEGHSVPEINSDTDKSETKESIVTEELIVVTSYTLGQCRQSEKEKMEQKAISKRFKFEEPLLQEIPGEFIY

EGFR(E746-A750del) = target: T4, EGFR(E746-A750del) (Homo sapiens, UniProt P00533, DEL746-750)
T4 construct: purchased Eurofins DiscoverX KINOMEscan
T4 sequence (P00533 with tags, fused parts or gaps DEL746-750 limits assumed): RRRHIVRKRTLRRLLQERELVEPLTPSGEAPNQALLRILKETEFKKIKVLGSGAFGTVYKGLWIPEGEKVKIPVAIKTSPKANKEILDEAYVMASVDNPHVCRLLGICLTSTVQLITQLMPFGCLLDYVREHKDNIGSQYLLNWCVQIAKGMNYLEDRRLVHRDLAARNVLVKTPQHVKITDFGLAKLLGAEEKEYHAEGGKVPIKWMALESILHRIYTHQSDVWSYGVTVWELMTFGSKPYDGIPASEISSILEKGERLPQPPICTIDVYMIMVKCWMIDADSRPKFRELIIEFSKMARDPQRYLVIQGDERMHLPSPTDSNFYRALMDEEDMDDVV

EGFR(L858R) = target: T5, EGFR(L858R) (Homo sapiens, UniProt P00533, L858R)
T5 construct: purchased Eurofins DiscoverX KINOMEscan

ERK5 = target: T6, ERK5 (Homo sapiens, UniProt Q13164)
T6 construct: purchased Eurofins DiscoverX KINOMEscan
T6 sequence (Q13164 whole entry): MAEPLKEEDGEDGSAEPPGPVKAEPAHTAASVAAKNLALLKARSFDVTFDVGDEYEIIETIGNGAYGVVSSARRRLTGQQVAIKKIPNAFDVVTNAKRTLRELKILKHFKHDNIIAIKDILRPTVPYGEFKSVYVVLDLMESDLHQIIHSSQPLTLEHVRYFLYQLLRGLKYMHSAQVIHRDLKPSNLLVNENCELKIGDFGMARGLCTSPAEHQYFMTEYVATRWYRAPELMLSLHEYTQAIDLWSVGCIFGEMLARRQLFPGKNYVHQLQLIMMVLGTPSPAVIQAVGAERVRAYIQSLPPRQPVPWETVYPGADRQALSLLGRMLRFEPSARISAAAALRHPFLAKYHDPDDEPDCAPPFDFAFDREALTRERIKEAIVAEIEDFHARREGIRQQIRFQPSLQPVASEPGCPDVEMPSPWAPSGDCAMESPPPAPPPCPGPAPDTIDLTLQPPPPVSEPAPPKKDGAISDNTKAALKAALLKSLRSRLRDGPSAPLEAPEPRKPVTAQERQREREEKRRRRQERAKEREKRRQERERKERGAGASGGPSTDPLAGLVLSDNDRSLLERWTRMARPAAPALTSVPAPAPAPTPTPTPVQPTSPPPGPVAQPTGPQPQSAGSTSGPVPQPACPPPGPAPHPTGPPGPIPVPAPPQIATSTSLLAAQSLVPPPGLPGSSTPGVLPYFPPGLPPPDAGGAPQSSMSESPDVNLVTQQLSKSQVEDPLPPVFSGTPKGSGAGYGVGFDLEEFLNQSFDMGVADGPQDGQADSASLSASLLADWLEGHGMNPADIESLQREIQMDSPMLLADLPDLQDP

INSR = target: T7, INSR (Homo sapiens, UniProt P06213)
T7 construct: purchased Eurofins DiscoverX KINOMEscan

[1] = target: T8, JAK3(JH1domain-catalytic) (Homo sapiens, UniProt P52333)
T8 construct: JAK3(JH1domain-catalytic); purchased Eurofins DiscoverX KINOMEscan
T8 sequence (P52333 822-1124 limits assumed): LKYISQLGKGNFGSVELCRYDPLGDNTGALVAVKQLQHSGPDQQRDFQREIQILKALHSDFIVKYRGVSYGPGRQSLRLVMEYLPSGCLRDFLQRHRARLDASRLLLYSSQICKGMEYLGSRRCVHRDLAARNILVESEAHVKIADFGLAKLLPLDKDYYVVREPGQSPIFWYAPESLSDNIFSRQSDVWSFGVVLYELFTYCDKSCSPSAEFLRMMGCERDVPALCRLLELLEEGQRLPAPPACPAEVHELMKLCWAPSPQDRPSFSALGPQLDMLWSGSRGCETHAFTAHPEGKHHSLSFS

KIT(V559D,T670I) = target: T9, KIT(V559D,T670I) (Homo sapiens, UniProt P10721, T670I/V559D)
T9 construct: purchased Eurofins DiscoverX KINOMEscan
T9 sequence (P10721 26-976 V559D/T670I): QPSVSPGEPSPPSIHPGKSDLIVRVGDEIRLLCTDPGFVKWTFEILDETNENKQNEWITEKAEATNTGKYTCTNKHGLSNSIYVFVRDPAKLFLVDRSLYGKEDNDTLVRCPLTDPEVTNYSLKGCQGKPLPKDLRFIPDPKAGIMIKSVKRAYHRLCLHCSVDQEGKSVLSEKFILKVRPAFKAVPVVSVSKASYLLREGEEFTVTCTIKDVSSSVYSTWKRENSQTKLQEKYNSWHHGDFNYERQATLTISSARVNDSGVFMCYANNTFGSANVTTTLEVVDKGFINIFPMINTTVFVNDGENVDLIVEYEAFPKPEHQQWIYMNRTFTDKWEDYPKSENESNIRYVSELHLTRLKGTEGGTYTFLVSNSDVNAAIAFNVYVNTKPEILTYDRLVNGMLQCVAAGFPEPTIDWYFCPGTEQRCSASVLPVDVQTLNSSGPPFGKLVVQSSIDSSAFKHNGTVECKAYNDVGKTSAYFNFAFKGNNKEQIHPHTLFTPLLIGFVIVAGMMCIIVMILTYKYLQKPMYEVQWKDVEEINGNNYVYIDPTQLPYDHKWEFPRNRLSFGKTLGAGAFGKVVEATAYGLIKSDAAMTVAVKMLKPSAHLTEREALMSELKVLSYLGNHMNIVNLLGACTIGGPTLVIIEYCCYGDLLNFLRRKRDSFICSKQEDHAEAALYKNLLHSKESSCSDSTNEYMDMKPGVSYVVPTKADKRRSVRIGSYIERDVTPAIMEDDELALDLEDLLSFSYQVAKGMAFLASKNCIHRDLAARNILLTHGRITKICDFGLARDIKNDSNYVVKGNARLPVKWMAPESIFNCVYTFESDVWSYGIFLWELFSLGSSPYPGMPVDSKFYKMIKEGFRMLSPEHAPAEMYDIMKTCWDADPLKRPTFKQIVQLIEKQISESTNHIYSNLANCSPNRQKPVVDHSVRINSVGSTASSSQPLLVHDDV

NLK = target: T10, NLK (Homo sapiens, UniProt Q9UBE8)
T10 construct: purchased Eurofins DiscoverX KINOMEscan
T10 sequence (Q9UBE8 1-527): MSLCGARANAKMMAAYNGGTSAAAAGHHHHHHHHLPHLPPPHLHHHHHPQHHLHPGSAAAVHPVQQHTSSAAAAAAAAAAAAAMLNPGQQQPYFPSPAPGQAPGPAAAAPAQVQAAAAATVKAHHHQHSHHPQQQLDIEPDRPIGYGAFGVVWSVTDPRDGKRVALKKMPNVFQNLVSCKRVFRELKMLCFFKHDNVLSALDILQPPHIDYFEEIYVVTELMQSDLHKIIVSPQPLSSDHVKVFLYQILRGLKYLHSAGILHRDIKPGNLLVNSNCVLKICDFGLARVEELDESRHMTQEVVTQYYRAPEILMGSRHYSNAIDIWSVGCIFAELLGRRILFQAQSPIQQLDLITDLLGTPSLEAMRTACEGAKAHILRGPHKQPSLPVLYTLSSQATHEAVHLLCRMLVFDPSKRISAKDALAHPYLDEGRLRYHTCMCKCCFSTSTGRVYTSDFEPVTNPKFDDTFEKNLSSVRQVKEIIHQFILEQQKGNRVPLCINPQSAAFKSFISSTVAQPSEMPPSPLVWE

PIK3C2B = target: T11, PIK3C2B (Homo sapiens, UniProt O00750)
T11 construct: purchased Eurofins DiscoverX KINOMEscan
T11 sequence (O00750 whole entry): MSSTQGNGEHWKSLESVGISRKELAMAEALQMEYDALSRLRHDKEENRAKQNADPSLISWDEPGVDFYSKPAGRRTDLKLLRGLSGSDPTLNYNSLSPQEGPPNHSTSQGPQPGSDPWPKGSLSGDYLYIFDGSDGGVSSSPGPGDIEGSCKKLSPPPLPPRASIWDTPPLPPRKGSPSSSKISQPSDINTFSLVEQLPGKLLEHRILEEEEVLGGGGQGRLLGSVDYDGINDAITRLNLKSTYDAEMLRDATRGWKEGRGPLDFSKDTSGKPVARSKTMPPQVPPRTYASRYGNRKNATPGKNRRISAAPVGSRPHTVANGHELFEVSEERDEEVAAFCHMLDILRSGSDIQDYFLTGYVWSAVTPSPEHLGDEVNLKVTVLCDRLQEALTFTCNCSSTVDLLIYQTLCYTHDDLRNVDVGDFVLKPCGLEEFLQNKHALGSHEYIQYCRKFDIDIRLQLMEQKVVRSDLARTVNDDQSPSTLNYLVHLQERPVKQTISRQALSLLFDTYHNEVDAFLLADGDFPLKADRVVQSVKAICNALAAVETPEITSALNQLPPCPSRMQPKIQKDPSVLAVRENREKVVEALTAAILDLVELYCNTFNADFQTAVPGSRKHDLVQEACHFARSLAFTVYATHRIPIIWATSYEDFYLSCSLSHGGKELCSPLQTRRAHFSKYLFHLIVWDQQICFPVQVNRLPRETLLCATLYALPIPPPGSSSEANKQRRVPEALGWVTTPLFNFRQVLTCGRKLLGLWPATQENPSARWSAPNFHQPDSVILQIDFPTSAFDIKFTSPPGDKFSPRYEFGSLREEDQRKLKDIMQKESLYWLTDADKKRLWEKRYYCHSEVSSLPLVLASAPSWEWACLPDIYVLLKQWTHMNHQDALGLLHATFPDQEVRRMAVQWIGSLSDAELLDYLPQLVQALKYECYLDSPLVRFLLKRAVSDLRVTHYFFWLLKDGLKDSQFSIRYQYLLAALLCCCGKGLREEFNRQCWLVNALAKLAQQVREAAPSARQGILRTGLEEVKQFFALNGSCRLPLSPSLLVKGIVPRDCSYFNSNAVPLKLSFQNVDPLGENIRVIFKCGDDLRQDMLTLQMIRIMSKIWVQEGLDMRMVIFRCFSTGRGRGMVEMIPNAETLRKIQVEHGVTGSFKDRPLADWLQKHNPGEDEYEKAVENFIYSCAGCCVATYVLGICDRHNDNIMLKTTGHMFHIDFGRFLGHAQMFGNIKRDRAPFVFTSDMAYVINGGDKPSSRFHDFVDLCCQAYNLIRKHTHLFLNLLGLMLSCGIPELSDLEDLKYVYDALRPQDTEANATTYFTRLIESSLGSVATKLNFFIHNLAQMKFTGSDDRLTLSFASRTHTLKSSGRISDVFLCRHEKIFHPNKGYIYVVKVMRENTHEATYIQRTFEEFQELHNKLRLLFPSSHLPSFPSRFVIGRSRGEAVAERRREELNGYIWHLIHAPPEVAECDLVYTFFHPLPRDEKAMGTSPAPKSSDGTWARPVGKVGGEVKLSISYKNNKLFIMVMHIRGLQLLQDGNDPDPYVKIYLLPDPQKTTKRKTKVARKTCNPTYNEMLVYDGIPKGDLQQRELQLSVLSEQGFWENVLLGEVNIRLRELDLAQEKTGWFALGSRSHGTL

PIM3 = target: T12, PIM3 (Homo sapiens, UniProt Q86V86)
T12 construct: purchased Eurofins DiscoverX KINOMEscan

PIP5K2C = target: T13, PIP5K2C (Homo sapiens, UniProt Q8TBX8)
T13 construct: purchased Eurofins DiscoverX KINOMEscan
T13 sequence (Q8TBX8 1-421): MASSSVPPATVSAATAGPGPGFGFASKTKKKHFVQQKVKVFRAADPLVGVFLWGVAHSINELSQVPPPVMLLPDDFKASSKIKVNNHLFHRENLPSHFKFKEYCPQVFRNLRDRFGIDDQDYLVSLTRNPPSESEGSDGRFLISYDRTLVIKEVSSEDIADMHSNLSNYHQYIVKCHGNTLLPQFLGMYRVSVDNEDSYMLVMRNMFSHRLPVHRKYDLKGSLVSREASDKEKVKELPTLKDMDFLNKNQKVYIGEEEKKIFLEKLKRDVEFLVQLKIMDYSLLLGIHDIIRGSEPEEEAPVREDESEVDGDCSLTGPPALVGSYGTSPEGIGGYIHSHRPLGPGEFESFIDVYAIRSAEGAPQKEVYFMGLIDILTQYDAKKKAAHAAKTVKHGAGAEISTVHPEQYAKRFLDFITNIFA

T1 sequence (Q13882 whole entry): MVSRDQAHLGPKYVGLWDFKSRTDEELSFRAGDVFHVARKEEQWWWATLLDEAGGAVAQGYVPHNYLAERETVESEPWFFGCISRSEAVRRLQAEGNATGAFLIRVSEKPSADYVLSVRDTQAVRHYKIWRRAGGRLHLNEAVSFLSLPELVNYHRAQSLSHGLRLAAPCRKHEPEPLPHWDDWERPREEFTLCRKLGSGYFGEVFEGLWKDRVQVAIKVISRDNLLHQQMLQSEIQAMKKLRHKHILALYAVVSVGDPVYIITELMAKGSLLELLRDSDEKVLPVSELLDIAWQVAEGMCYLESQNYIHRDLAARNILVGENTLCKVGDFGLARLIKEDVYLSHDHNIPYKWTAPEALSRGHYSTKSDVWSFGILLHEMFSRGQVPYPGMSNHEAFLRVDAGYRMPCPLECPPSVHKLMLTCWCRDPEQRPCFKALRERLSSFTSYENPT

Question: Which remaining binding at 1 µM (BRK) does the source give for Clc1cc(NCC2CC2)c2ncc(-c3ccc4[nH]ncc4c3)n2n1 [compound 2, 6-Chloro-N-(cyclopropylmethyl)-3-(1H-indazol-5-yl)imidazo[1,2-b]pyridazin-8-amine] here?
Answer: Its remaining binding at 1 µM is 87%.

Question: What about the remaining binding at 1 µM (BRSK2) of the same molecule?
Answer: The remaining binding at 1 µM was 100%.

Question: And the remaining binding at 1 µM (DRAK1)?
Answer: Its remaining binding at 1 µM is 18%.

Question: And the remaining binding at 1 µM (EGFR(E746-A750del))?
Answer: The remaining binding at 1 µM was 84%.

Question: What about the remaining binding at 1 µM (EGFR(L858R)) of the same molecule?
Answer: Its remaining binding at 1 µM is 68%.

Question: What about the remaining binding at 1 µM (ERK5) of the same molecule?
Answer: Its remaining binding at 1 µM is 100%.

Question: And the remaining binding at 1 µM (INSR)?
Answer: The remaining binding at 1 µM was 99%.

Question: And the remaining binding at 1 µM [1]?
Answer: The remaining binding at 1 µM was 100%.

Question: And the remaining binding at 1 µM (KIT(V559D,T670I))?
Answer: Its remaining binding at 1 µM is 20%.

Question: And the remaining binding at 1 µM (NLK)?
Answer: Its remaining binding at 1 µM is 70%.

Question: What about the remaining binding at 1 µM (PIK3C2B) of the same molecule?
Answer: The remaining binding at 1 µM was 86%.

Question: What about the remaining binding at 1 µM (PIM3) of the same molecule?
Answer: The remaining binding at 1 µM was 95%.

Question: And the remaining binding at 1 µM (PIP5K2C)?
Answer: Its remaining binding at 1 µM is 67%.

Question: For O=C(CN1CCOCC1)N[C@H]1CC[C@H](Nc2cc(Cl)nn3c(-c4ccc5[nH]ncc5c4)cnc23)CC1 [compound 26], which remaining binding at 1 µM (BRK) is on record?
Answer: The remaining binding at 1 µM was 85%.

Question: And the remaining binding at 1 µM (BRSK2)?
Answer: Its remaining binding at 1 µM is 98%.

Question: And the remaining binding at 1 µM (DRAK1)?
Answer: Its remaining binding at 1 µM is 20%.

Question: What about the remaining binding at 1 µM (EGFR(E746-A750del)) of the same molecule?
Answer: The remaining binding at 1 µM was 91%.

Question: What about the remaining binding at 1 µM (EGFR(L858R)) of the same molecule?
Answer: Its remaining binding at 1 µM is 83%.

Question: And the remaining binding at 1 µM (ERK5)?
Answer: Its remaining binding at 1 µM is 98%.

Question: And the remaining binding at 1 µM (INSR)?
Answer: Its remaining binding at 1 µM is 91%.

Question: And the remaining binding at 1 µM [1]?
Answer: The remaining binding at 1 µM was 100%.

Question: What about the remaining binding at 1 µM (KIT(V559D,T670I)) of the same molecule?
Answer: The remaining binding at 1 µM was 0.85%.

Question: And the remaining binding at 1 µM (NLK)?
Answer: Its remaining binding at 1 µM is 100%.

Question: What about the remaining binding at 1 µM (PIK3C2B) of the same molecule?
Answer: Its remaining binding at 1 µM is 97%.

Question: What about the remaining binding at 1 µM (PIM3) of the same molecule?
Answer: The remaining binding at 1 µM was 71%.

Question: What about the remaining binding at 1 µM (PIP5K2C) of the same molecule?
Answer: Its remaining binding at 1 µM is 93%.

Question: CN1CCC(CNc2cc(Cl)nn3c(-c4cc5nc(Nc6ccccc6)[nH]c5cc4F)cnc23)CC1 [compound 31, 6-Chloro-3-(6-fluoro-2-(phenylamino)-1H-benzo[d]imidazol-5-yl)-N-((1-methylpiperidin-4-yl)methyl)imidazo[1,2-b]pyridazin-8-amine] was tested. Which remaining binding at 1 µM (BRK) did it give?
Answer: The remaining binding at 1 µM was 93%.

Question: And the remaining binding at 1 µM (BRSK2)?
Answer: Its remaining binding at 1 µM is 84%.

Question: What about the remaining binding at 1 µM (DRAK1) of the same molecule?
Answer: Its remaining binding at 1 µM is 91%.

Question: What about the remaining binding at 1 µM (EGFR(E746-A750del)) of the same molecule?
Answer: Its remaining binding at 1 µM is 100%.

Question: And the remaining binding at 1 µM (EGFR(L858R))?
Answer: The remaining binding at 1 µM was 100%.

Question: And the remaining binding at 1 µM (ERK5)?
Answer: The remaining binding at 1 µM was 87%.

Question: And the remaining binding at 1 µM (INSR)?
Answer: Its remaining binding at 1 µM is 97%.

Question: And the remaining binding at 1 µM [1]?
Answer: The remaining binding at 1 µM was 82%.

Question: And the remaining binding at 1 µM (KIT(V559D,T670I))?
Answer: Its remaining binding at 1 µM is 97%.

Question: What about the remaining binding at 1 µM (NLK) of the same molecule?
Answer: The remaining binding at 1 µM was 100%.

Question: What about the remaining binding at 1 µM (PIK3C2B) of the same molecule?
Answer: Its remaining binding at 1 µM is 100%.

Question: What about the remaining binding at 1 µM (PIM3) of the same molecule?
Answer: Its remaining binding at 1 µM is 92%.

Question: What about the remaining binding at 1 µM (PIP5K2C) of the same molecule?
Answer: The remaining binding at 1 µM was 100%.
